Assay [1] has as its system Nucleic Acid. The experiment in a line: Down regulation of human STAT3 gene expression in human HEK293 cells cloned with FRQ vector harboring intact G-quadruplex at 2 to 10 uM after 24 hrs by luciferase reporter gene assay. In kind it is cell-based.
Assay [2] concerns HEK293. The experiment in a line: Down regulation of human STAT3 gene expression in human HEK293 cells cloned with DelQ vector harboring G-quadruplex G-rich sequence deletion at 2 to 10 uM after 24 hrs by luciferase reporter gene assay. In kind it is functional, cell-based.
Assay [3] concerns HEK293. The experiment in a line: Down regulation of human STAT3 gene expression in human HEK293 cells cloned with MutQ vector harboring G-quadruplex GGG to GTG substitution mutation at 2 to 10 uM after 24 hrs by luciferase reporter gene assay. In kind it is functional, cell-based.
For assay [4], the system named is Nucleic Acid. The assay can be described thus: Binding affinity to STAT3 G-quadruplex in 3'-flanking region 5'-GGGCTGGGGATGGGGAGGGGG-3' assessed as intensity ratio of all complex ions to the sum of all G-quadruplex and complex ions at 20 uM by ESI mass spectroscopy relative to control. In kind it is nucleic-acid assay.
Assay [5] deals with Nucleic Acid. The experiment in a line: Binding affinity to STAT3 G-quadruplex in rat cardiomyocytes assessed as down regulation of STAT3 gene expression at 10 uM after 48 hrs by RT-PCR analysis. The assay is classed as cell-based.
Assay [6] concerns Nucleic Acid. The assay can be described thus: Binding affinity to STAT3 G-quadruplex in rat cardiomyocytes assessed as down regulation of STAT3 protein expression at 10 uM after 48 hrs by Western blot analysis. The assay is classed as cell-based.
Assay [7] relates to Nucleic Acid. The experiment in a line: Binding affinity to human VEGF G-quadruplex 5'-GGGGCGGGCCGGGGGCGGGG-3' assessed as the intensity ratio of all complex ions to the sum of all G-quadruplex and complex ions at 20 uM by ESI mass spectroscopy relative to control. The assay is classed as nucleic-acid assay.
The test system of assay [8] is Nucleic Acid. The experiment in a line: Binding affinity to STAT3 G-quadruplex in 3'-flanking region 5'-GGGCTGGGGATGGGGAGGGGG-3' assessed as melting temperature at 20 uM by UV-Vis spectrophotometry (reference value: 58 degC). In kind it is nucleic-acid assay.
Assay [9] concerns Nucleic Acid. The experiment in a line: Binding affinity to STAT3 G-quadruplex in 3'-flanking region 5'-GGGCTGGGGATGGGGAGGGGG-3' assessed as melting temperature at 40 uM by UV-Vis spectrophotometry (reference value: 58 degC). The assay is classed as nucleic-acid assay.
In assay [10] the test system is Nucleic Acid. The assay can be described thus: Binding affinity to G-telomeric quadruplex 5'-GGGTTAGGGTTAGGGTTAGGG-3' assessed as the intensity ratio of all complex ions to the sum of all G-quadruplex and complex ions at 20 uM by ESI mass spectroscopy relative to control. The assay is classed as nucleic-acid assay.
For assay [11], the system named is Nucleic Acid. The assay can be described thus: Binding affinity to STAT3 G-quadruplex in 3'-flanking region 5'-GGGCTGGGGATGGGGAGGGGG-3' assessed as melting temperature at 10 uM by UV-Vis spectrophotometry (reference value: 58 degC). The assay is classed as nucleic-acid assay.

Each structure is given as a SMILES string. Activity calls are given as the source filed them. The calls are words filed in the database; no cut-off is given here.

`C[n+]1ccc(-c2c3nc(c(-c4cc[n+](C)cc4)c4ccc([nH]4)c(-c4cc[n+](C)cc4)c4ccc([nH]4)c(-c4cc[n+](C)cc4)c4nc2C=C4)C=C3)cc1`: the inhibition entry in assay [1] was “Active”. Moreover, the inhibition entry in [2] and in assay [3] was “inactive” each time. For the same molecule, the Ratio in assay [4] is 0.53. In addition, the outcome in [5] and in assay [6] was Active.
With `COc1cc2c(cc1OC)-c1c(C)c3ccc(OC)c(OC)c3c[n+]1CC2`, the Ratio in assay [4] came to 0.34.
Consider `COc1ccc2cc1Oc1ccc(cc1)C[C@H]1c3c(cc4c(c3Oc3cc5c(cc3OC)CCN(C)[C@@H]5C2)OCO4)CCN1C`, for which the inhibition result in assay [1] is “Active”. For the same molecule, the inhibition result in assay [2] and in assay [3] was “inactive” throughout. Further, the values for the Ratio in [7], in [4] and in assay [10] were 0.26, 0.81 and 0.47, respectively. In addition, the Tm in assay [8] was 62 °C; in assay [9], 65 °C; in assay [11], 59 °C. For the same molecule, the result in assay [5] and in [6] was Active.

The values above are taken from ChEMBL document CHEMBL1914367, “Formation, recognition and bioactivities of a novel G-quadruplex in the STAT3 gene” (Bioorg Med Chem Lett, 2011).
